Data as given in patent US8273740B2, “2-sulfanyl-benzoimidazol-1-yi-acetic acid derivatives as CRTH2 antagonists” (Actelion Pharmaceuticals, Ltd., priority 2004, dated 2012).

Experiments:
hCRTH2 receptor [1] = target: T1, hCRTH2 receptor (Homo sapiens, UniProt Q9Y5Y4); test: CRTH2 membranes radioligand binding assay ({3H}-PGD2); antagonist binding to the CRTH2 receptor; details: {3H}-PGD2 radioligand binding, membranes of HEK 293 cells expressing recombinant hCRTH2; read-out: hCRTH2 BDG IC50
T1 construct: expressed in transfected cells; host or cells: clonal HEK 293 cell line (membranes)
T1 sequence (Q9Y5Y4 1-395): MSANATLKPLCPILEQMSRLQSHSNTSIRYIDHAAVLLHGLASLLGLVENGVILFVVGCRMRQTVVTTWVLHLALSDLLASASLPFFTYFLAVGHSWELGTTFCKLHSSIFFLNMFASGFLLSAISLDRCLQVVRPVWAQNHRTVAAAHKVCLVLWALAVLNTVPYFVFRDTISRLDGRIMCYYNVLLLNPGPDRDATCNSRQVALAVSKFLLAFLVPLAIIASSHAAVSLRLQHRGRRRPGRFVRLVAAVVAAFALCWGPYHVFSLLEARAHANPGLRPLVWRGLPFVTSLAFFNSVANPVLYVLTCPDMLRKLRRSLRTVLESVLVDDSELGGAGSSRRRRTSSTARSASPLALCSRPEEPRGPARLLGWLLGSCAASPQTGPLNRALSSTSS
Procedure: Preparation of CRTH2 Membranes and Radioligand Binding Assay:
Cells are detached from culture plates in 5 ml buffer A per plate (5 mM Tris, 1 mM MgCl2x6H2O, 0.1 mM PMSF, 0.1 mM phenanthroline) using a police rubber and transferred into centrifugation tubes and frozen at −80° C. After thawing, the cells are centrifuged at 500 g for 5 min and then resuspended in buffer A. Cells are then fragmented by homogenization with a Polytron homogenizer for 30 s. The membrane fragments are centrifuged at 3000 g for 40 min and resuspended in membranes in buffer B (50 mM Tris, 25 mM MgCl2, 250 mM saccharose, pH 7.4) and aliquots are stored frozen.
Binding assay is performed in a total volume of 250 μl. […] For unspecific binding, PGD2 is added to the reaction mixture at 1 μM final concentration. This binding assay mix is incubated at rt for 90 min and then filtered through a GF/C filter plate. The filter is washed three times with ice cold binding buffer. Then, 40 μl per well Microscint-40 (Packard) are added and the bound radioactivity is quantified by means of Topcount (Packard).

hCRTH2 receptor [2] = target: T1, hCRTH2 receptor; test: Intracellular calcium mobilization assay (FLIPR), antagonism of prostaglandin D2; format: cell-based
Excerpt: A functional assay with cells expressing the human CRTH2 receptor may be used to detect changes in the levels of intracellular calcium concentration following compound treatment. After addition of the compound the cells are challenged with PGD2. […] The relative values of the remaining activity were used to determine IC50 values by curve fitting the data to a single site to a four-parameter logistic sigmoid dose response curve of the equation (A+((B−A)/(1+((C/x)^D)))).
The ability of the compounds to inhibit PGD2 induced change of intracellular calcium levels via CRTH2 activation may be measured by methods known of one skilled in the art or by the method described below in the experimental part.
Intracellular Calcium Mobilization Assay (FLIPR):
Cells are detached from culture dishes using a dissociation buffer (0.02% EDTA in PBS, Gibco) for 1 min, and collected by centrifugation at 200 g at rt for 5 min in assay buffer [equal parts of Hank's BSS (HBSS, Bioconcept) and DMEM (low glucose, without phenol red, Gibco)].
Stock solutions of test compounds are made up at a concentration of 10 mM in DMSO, and serially diluted in assay buffer to concentrations required for inhibition dose response curves. Prostaglandin D2 (Biomol, Plymouth Meeting, Pa.) is used as an agonist.
A FLIPR384 instrument (Molecular Devices) is operated according to the manufacturer's standard instructions, adding 4 μl of test compound dissolved at 10 mM in DMSO and diluted prior to the experiment in assay buffer to obtain the desired final concentration. An assay buffer containing 10 μl of 80 nM prostaglandin D2 (Biomol, Plymouth Meeting, Pa.), supplemented with 0.8% bovine serum albumin (fatty acid content <0.02%, Sigma), is then added to obtain a final concentration of 10 nM and 0.1%, respectively. […] Emission peak values above base level after prostaglandin D2 addition are exported after base line subtraction. Values are normalized to high-level control (no test compound added) after subtraction of base line value (no prostaglandin D2 added). The program XL1fit 3.0 (IDBS) is used to fit the data to a single site dose response curve of the equation (A+((B−A)/(1+((C/x)^D)))) and to calculate the IC50 values.

[3] = HEK-293 cells expressing hCRTH2, agonist prostaglandin D2 10 nM, read-out: hCRTH2 FLIPR IC50

IC50 (hCRTH2 receptor [1]) [nM] | IC50 (hCRTH2 receptor [2]; [3]) [nM] | SMILES | IC50 (hCRTH2 receptor [2]) [nM]
10 | – | CCCCOC(=O)N(CCCSc1nc2ccccc2n1CC(=O)O)CCc1ccccc1 | –
– | 128 | CCOC(=O)c1ccc(N(CCCSc2nc3ccccc3n2CC(=O)O)C(=O)CC(c2ccccc2)c2ccccc2)cc1 | –
– | 201 | COC(=O)c1ccc(OC)c(CSc2nc3ccccc3n2CC(=O)O)c1 | –
22 | – | CCCC(=O)N1CCCC(CSc2nc3ccccc3n2CC(=O)O)C1 (racemic) | –
18 | – | O=C(O)Cn1c(SCC2CCCN(C(=O)c3ccc(Br)cc3)C2)nc2ccccc21 (racemic) | –
7 | – | CCOC(=O)c1ccc(N(CCCSc2nc3ccccc3n2CC(=O)O)C(=O)C(c2ccccc2)C2CCCCC2)cc1 (racemic) | –
13 | – | COc1ccc(C(C)=O)cc1CSc1nc2cc(F)ccc2n1C(C)C(=O)O (racemic) | –
– | 156 | O=C(O)Cn1c(SCC2CCCN(C(=O)c3cccc(Cl)c3)C2)nc2ccccc21 (racemic) | –
23 | 88 | O=C(O)Cn1c(SCC2CCN(C(=O)c3ccc(Br)cc3)C2)nc2cc(F)ccc21 (racemic) | –
15 | – | CCCCC(=O)N(CCCSc1nc2ccccc2n1CC(=O)O)CC(c1ccccc1)c1ccccc1 [(2-{3-[(2,2-Diphenyl-ethyl)-pentanoyl-amino]-propylsulfanyl}-benzoimidazol-1-yl)-acetic acid] | –
4 | 148 | CCCC(=O)N1CCCC(CSc2nc3cc(Cl)c(Cl)cc3n2CC(=O)O)C1 (centres unmarked) [[2-(1-Butyryl-piperidin-3-ylmethylsulfanyl)-5,6-dichloro-benzoimidazol-1-yl]-acetic acid] | –
– | 212 | O=C(O)Cn1c(SCCC(c2ccccc2)c2ccccc2)nc2ccc([N+](=O)[O-])cc21 [[2-(3,3-Diphenyl-propylsulfanyl)-6-nitro-benzoimidazol-1-yl]-acetic acid] | –
15 | 15 | COC(=O)c1cccc(CSc2nc3cc([N+](=O)[O-])ccc3n2CC(=O)O)c1 [[2-(3-Methoxycarbonyl-benzylsulfanyl)-5-nitro-benzoimidazol-1-yl]-acetic acid] | –
6 | – | COc1ccc(C(C)=O)cc1CSc1nc2cc(C=O)ccc2n1CC(=O)O [[2-(5-Acetyl-2-methoxy-benzylsulfanyl)-5-formyl-benzoimidazol-1-yl]-acetic acid] | –
– | – | CCCCNC(=O)c1ccc(OC)c(CSc2nc3cc(F)ccc3n2CC(=O)O)c1 [[2-(5-Butylcarbamoyl-2-methoxy-benzylsulfanyl)-5-fluoro-benzoimidazol-1-yl]-acetic acid] | 21
12 | – | CCCCC(=O)N(CCCSc1nc2ccccc2n1CC(=O)O)CCc1ccccc1 [{2-[3-(Pentanoyl-phenethyl-amino)-propylsulfanyl]-benzoimidazol-1-yl}-acetic acid] | –
– | 4 | COc1ccc(C(=O)N2CCc3ccccc32)cc1CSc1nc2cc(F)ccc2n1CC(=O)O [{2-[5-(2,3-Dihydro-indole-1-carbonyl)-2-methoxy-benzylsulfanyl]-5-fluoro-benzoimidazol-1-yl}-acetic acid] | –
2 | – | CC(=O)c1ccc(OCCCO)c(CSc2nc3cc(F)ccc3n2CC(=O)O)c1 [{2-[5-Acetyl-2-(3-hydroxy-propoxy)-benzylsulfanyl]-5-fluoro-benzoimidazol-1-yl}-acetic acid] | –

SMILES | IC50 (hCRTH2 receptor [1]) [nM] | IC50 (hCRTH2 receptor [2]; [3]) [nM] | IC50 (hCRTH2 receptor [2]) [nM]
COc1ccc(C(C)=O)cc1CSc1nc2ccccc2n1CC(=O)O [[2-(5-Acetyl-2-methoxy-benzylsulfanyl)-benzoimidazol-1-yl]-acetic acid] | 9 | – | –
CCCCOC(=O)N(CCCSc1nc2cc([N+](=O)[O-])ccc2n1CC(=O)O)CCc1ccccc1 [{2-[3-(Butoxycarbonyl-phenethyl-amino)-propylsulfanyl]-5-nitro-benzoimidazol-1-yl}-acetic acid] | 1 | – | –
